Structures are written as SMILES.

A short description of this data set: Human HepG2 cell viability assay in 384 well format. It counts as toxicity, cell-based. Also noted: dose 125 nL, time 70.5 hour; cytotoxicity at 70.5 h: concentration not given beside the values. The note with it: HepG2 cells, read-out: Inhibition.
With `CC(C)C1CN(C(=O)c2cc(=O)[nH]c(=O)[nH]2)CCCN1CC1CC1` (stereo not given), the cytotoxicity at 70.5 h is -0.864%. For `Cc1ccccc1CSc1nc(N)cc(N2CCCC(C(N)=O)C2)n1` (stereo not given), the cytotoxicity at 70.5 h was -2.56%. For `CCc1ocnc1C(=O)N1CCC(C2CCN(c3ncccn3)CC2)C1` (stereo not given) the value was 1.07%; for `CC(=O)N[C@@H]1CN(C2CCN(c3cccc(Cl)c3)CC2)C[C@H]1C(C)C`, -7.17%; for `CC(C)C(O)C(=O)N1CCC2(CC1)c1nc[nH]c1CCN2S(C)(=O)=O` (stereo not given), -6.39%.

Take `Cc1ccccc1CN(CCN(C)C)Cc1ccc(S(C)(=O)=O)cc1`: the cytotoxicity at 70.5 h was 4.23%. With `NC(=O)c1cc2c(nc1Oc1cccc(CN3CCCC3)c1F)CCC2`, the cytotoxicity at 70.5 h is -13.8%. Turning to `CS(=O)(=O)NCCNc1ncnc2cccc(F)c12`, the cytotoxicity at 70.5 h was -6.37%. As for `Cc1ccccc1CCC1CCCN(Cc2c(C)[nH]c(=O)[nH]c2=O)C1` (stereo not given), the cytotoxicity at 70.5 h was -8.6%. For `COCc1noc(CNc2nc(C3CCCC3)nc3c2CCNCC3)n1`, the cytotoxicity at 70.5 h was -10.6%.

For `Cc1cc(N(C)CCn2ccnc2C)n2nccc2n1`, the cytotoxicity at 70.5 h is -11.6%. As for `CCCSCC(=O)N1C[C@H]2CC[C@@H]1CN(Cc1cccnc1)C2`, the cytotoxicity at 70.5 h worked out at 6.46%. Consider `Nc1cc(-c2cccc3ccnn23)ccn1`, for which the cytotoxicity at 70.5 h was -2.42%. As to `COc1cc2c(cc1-c1nc3c(cnn3C(C)C(C)C)[nH]1)OCO2` (stereo not given), the cytotoxicity at 70.5 h was -0.404%. Then `CC(=O)NCc1nnc2n1CCN(c1ncnc3c1CCC3)CC2`, with 25.3%; and `O=C(NCC(F)F)c1ccc(S(=O)(=O)NCCc2ccncc2)cc1`, with -11.1%. For the compound `Cc1ccc(OC2(C(=O)NC(C)Cc3ccsc3)CCNCC2)cc1` (stereo not given), the cytotoxicity at 70.5 h is 7.16%.

With `Cc1cc(C(F)(F)F)nc(CNC(=O)CCn2cccn2)n1`, the cytotoxicity at 70.5 h is -6.34%. For the compound `COc1ccc(F)c(F)c1CN1CCN(CC(C)C)C(=O)C1C` (stereo not given), the cytotoxicity at 70.5 h worked out at 25%. With `Cc1nn(C)c(C)c1-c1nc2cc(S(=O)(=O)N3CCCC3)ccc2n1C`, the cytotoxicity at 70.5 h was -0.406%. With `Nc1cc(N2CCCC(Cc3ccc(F)cc3F)(C(=O)O)C2)ncn1` (stereo not given), the cytotoxicity at 70.5 h was -5.98%. For `Cc1cccc(N2CCN(C(=O)C3CC4(CCNCC4)CN3)CC2)n1` (stereo not given) the value was 5.27%. In the case of `O=C(CCc1cc(O)no1)N1CCC(Cc2ccc(F)cc2)CC1`, the cytotoxicity at 70.5 h is -12%. As to `CCN1CCN(C[C@@H]2CN(c3ncc(Cl)cc3Cl)C[C@@H]2CO)CC1`, the cytotoxicity at 70.5 h was -6.63%. Regarding `C/C=C(\C)CN1CCCn2nc(CNC(=O)C3CCC3)cc2C1`, the cytotoxicity at 70.5 h is -11.6%. For the compound `O=c1[nH]cccc1-c1nccc(C2(c3ccccc3Cl)CCNCC2)n1`, the cytotoxicity at 70.5 h worked out at 29.1%. For `COc1ccc(NC(=O)CCN2CC=C(c3cnn(C)c3)CC2)cc1Cl`, the cytotoxicity at 70.5 h came to 5.66%. As to `CCN(Cc1cc(Cl)ccc1OC)Cc1ncnn1CC`, the cytotoxicity at 70.5 h was determined as 1.58%. As to `O=C1Cc2cc(NC(=O)N3CCCN(Cc4cccs4)CC3)ccc2N1`, the cytotoxicity at 70.5 h is -4.49%. For `CCN(Cc1cc(-c2ccccn2)no1)C1CCS(=O)(=O)C1` (stereo not given) the value was -9.24%. For the compound `CCNC(=O)C1CCN(c2nc(-c3ccco3)nc3c2CCNCC3)C1` (stereo not given), the cytotoxicity at 70.5 h was -7.78%. On to `Clc1cccc2c3c([nH]c12)CCN(Cc1cc2n(n1)CCCNC2)C3`, for which the cytotoxicity at 70.5 h is 35.7%.

Take `CCCN1CCN(C(=O)c2cncnc2C)[C@H]2CS(=O)(=O)C[C@H]21`: the cytotoxicity at 70.5 h amounted to 3.92%. Consider `CCOc1ccc(C(=O)CCC(=O)N(C)Cc2cnccn2)cc1C`, for which the cytotoxicity at 70.5 h stood at 10.8%. For `Cc1cc(C)cc(N2CCN(Cc3cccc(CCN)c3)CC2=O)c1` the value was -2.46%; for `COc1ncc(-c2cc(NC3CCCC3)nc3[nH]ccc23)c(OC)n1`, -12%. Regarding `CC1=NOC(C(=O)N2CCC(O)(c3ccc4nc(C)ccc4c3)CC2)C1` (stereo not given), the cytotoxicity at 70.5 h is -6.17%.

With `C=C(C)COc1cccc(CNCCc2nc(N)cc(O)n2)c1`, the cytotoxicity at 70.5 h was -9.19%. For `O=C(NC1CCOCC1)c1cccc(C2CCCNC2)c1` (stereo not given), the cytotoxicity at 70.5 h is -10.4%.

Consider `c1nc2c(c(NCCCn3cncn3)n1)CCN(CC1CCOC1)CC2` (stereo not given), for which the cytotoxicity at 70.5 h is -2.03%. Take `CCC(O)Cn1cc(C2=CCN(Cc3cc(O)nc(C)n3)CC2)cn1` (stereo not given): the cytotoxicity at 70.5 h turned out to be 10.8%. Regarding `CCc1cc(N2CCC(NCCc3nc(C)c(C)s3)CC2)nc(C)n1`, the cytotoxicity at 70.5 h was -12.2%. Regarding `CC(C)[C@H]1CN(Cc2ccccc2C#N)C[C@@H]1NC(=O)C1CCOCC1`, the cytotoxicity at 70.5 h was -13.1%. For the compound `CC(Oc1ccc2c(c1)OCO2)C(=O)N1CCC(N2CCCC2)CC1` (stereo not given), the cytotoxicity at 70.5 h is -4.56%. For `CCC(NC(=O)c1cc(CC(C)C)nn1C)c1ccnn1C` (stereo not given) the value was -10.3%; for `OC1(CN2CCN(c3cccc(C(F)(F)F)c3)CC2)CNCCOC1` (stereo not given), -12%; for `Cc1cnc(NCc2ccncc2)nc1-c1cnn(C)c1`, 12.6%.

For the compound `CCN1CCN(C(=O)CCC2CCN(C(=O)CCSC)CC2)CC1`, the cytotoxicity at 70.5 h was determined as 22.6%. Turning to `CCc1cc(N2CCC(NC3CN4CCC3CC4)CC2)nc(N(C)C)n1` (stereo not given), the cytotoxicity at 70.5 h came to 29.4%. Turning to `CC(C)C(C)n1nccc1NC(=O)Cn1cnc2ccccc21` (stereo not given), the cytotoxicity at 70.5 h was -12.4%. On to `CN1CCCC1c1ccc(C(=O)Nc2c3c(nn2C)CCC3)s1` (stereo not given), for which the cytotoxicity at 70.5 h was -13%. With `CN(CCO)Cc1nnc(C2CCN(C(=O)c3cc[nH]c3)CC2)n1C`, the cytotoxicity at 70.5 h was -1.84%. For `CSCCNc1ccc(C(=O)N(C)Cc2ccc3ccccc3n2)cn1`, the cytotoxicity at 70.5 h was -12.8%. As for `Cc1cccc(CN2CCCC(O)(CNCc3ncccc3C)C2=O)c1` (stereo not given), the cytotoxicity at 70.5 h is -7.55%. For `Cc1cc2nc(C(C)C)cc(NCc3ccncc3)n2n1`, the cytotoxicity at 70.5 h was -7.5%. Then `Cc1ccc(-c2nnc(CN3CCCCC3Cn3cncn3)o2)cc1` (stereo not given), with -12.6%.

As to `Cc1ccc(C)c(CS(=O)(=O)CC(=O)NCCCOC(C)C)c1`, the cytotoxicity at 70.5 h is -4.92%. With `Cc1ccc(CS(=O)(=O)CC(=O)NCCCOC(C)C)cc1`, the cytotoxicity at 70.5 h is -10.8%. `CC(C)OCCCNC(=O)CS(=O)(=O)Cc1ccc(Cl)cc1`: the cytotoxicity at 70.5 h turned out to be 13%. On to `CC(Cn1cccn1)NC(=O)Nc1ccccn1` (stereo not given), for which the cytotoxicity at 70.5 h was -8.38%. `CC(NC(=O)NCc1ccoc1)c1ccc2c(c1)CC(=O)N2` (stereo not given): the cytotoxicity at 70.5 h was -4.73%. As to `O=C(CS(=O)(=O)Cc1ccccc1)NC1CCCCNC1=O` (stereo not given), the cytotoxicity at 70.5 h was found to be 12.6%. In the case of `Cc1csc(CNC(=O)NC(C)c2ccc3c(c2)CCC(=O)N3)n1` (stereo not given), the cytotoxicity at 70.5 h was -5.74%. As for `COc1ccccc1CC(=O)NS(=O)(=O)c1ccc(NC(C)=O)cc1`, the cytotoxicity at 70.5 h is -6.22%. Turning to `COC(=O)C(NC(=O)CC(C)C)c1cc(F)ccc1F` (stereo not given), the cytotoxicity at 70.5 h is -1.44%. For `c1coc(-c2nnc(CN3CCCC3Cn3cncn3)o2)c1` (stereo not given) the value was -1.88%; for `COc1ccc(-c2nnc(CN3CCCC3Cn3cncn3)o2)cc1` (stereo not given), 15.3%. On to `CCCC(=O)NC(C(=O)OC)c1cc(F)ccc1F` (stereo not given), for which the cytotoxicity at 70.5 h is -3.96%.

Regarding `CNc1cc2c(nn1)CCN(C(=O)c1cccc3c1OCCO3)C2`, the cytotoxicity at 70.5 h was -0.154%. `c1cnnc(NCC2CN(CC3CCOCC3)CCO2)c1` (stereo not given): the cytotoxicity at 70.5 h was -5.6%. Turning to `O=C(CN1CCOC(CNc2cccnn2)C1)N1CCCCC1` (stereo not given), the cytotoxicity at 70.5 h was -6.36%. Then `OC1(CN2CCOC(CNc3cccnn3)C2)CCCCC1` (stereo not given), with 0.208%; and `O=C(c1cccn1Cc1cccs1)N1CCC(C(=O)N2CCCC2)CC1`, with -5.45%; and `NC(=O)CC1CCN(C(=O)c2cccn2Cc2cccs2)CC1`, with 3.87%. Then `O=C(c1cccn1Cc1cccs1)N1CCSCC1`, with 25%; and `Cn1c(CN2CCOC(CNc3cccnn3)C2)nnc1C1CC1` (stereo not given), with -2.31%; and `COc1ccccc1CC(=O)NS(=O)(=O)c1ccc(C#N)cc1`, with 4.13%.

For the compound `COc1ccc(Cl)cc1CC(=O)NS(=O)(=O)c1ccc(C(N)=O)cc1`, the cytotoxicity at 70.5 h was -3.68%. Take `CCN(CC)S(=O)(=O)c1cccc(C(=O)N(C)Cc2ccsc2)c1`: the cytotoxicity at 70.5 h turned out to be 14.5%. Take `CCOCC(=O)N1CSCC1C(=O)N(C)Cc1ccco1` (stereo not given): the cytotoxicity at 70.5 h was determined as 15.7%.

With `CN(Cc1cnn(C)c1)C(=O)CN1CCCC(Cn2cncn2)C1` (stereo not given), the cytotoxicity at 70.5 h is 48%.

With `CCc1nc2n(n1)CC(NCc1cc(OC)c3c(c1)OCCO3)CC2` (stereo not given), the cytotoxicity at 70.5 h is -5.82%. On to `Cc1cccc(C(=O)N2CCCCC2c2nc(C)cs2)n1` (stereo not given), for which the cytotoxicity at 70.5 h was -12.3%. As for `CC(=O)N1CCCN(C(=O)c2cnn(C(C)(C)C)c2C)CC1`, the cytotoxicity at 70.5 h was -10.1%.

Consider `CN(Cc1ccsc1)C(=O)c1cccc(S(=O)(=O)NCC2CCCO2)c1` (stereo not given), for which the cytotoxicity at 70.5 h worked out at 15.1%. Turning to `CN(Cc1ccsc1)C(=O)c1ccc(S(=O)(=O)NC(C)(C)C)cc1`, the cytotoxicity at 70.5 h is -7.83%. For `CCc1c(C(=O)N2CCNC(=O)C2)cnn1C(C)(C)C`, the cytotoxicity at 70.5 h is -6.91%. On to `Cc1nnc(NC(=O)NCc2ccc(OC(C)C)nc2)s1`, for which the cytotoxicity at 70.5 h came out at 20.6%. With `Cc1nnc(NC(=O)NCc2ccoc2)s1`, the cytotoxicity at 70.5 h was -2.74%.

Regarding `OCCN1CCN(Cc2coc(-c3cccc(Cl)c3)n2)CC1`, the cytotoxicity at 70.5 h worked out at 24.5%. As for `CCOCCCn1c(NC(=O)c2cc(C)on2)nc2ccccc21`, the cytotoxicity at 70.5 h was 9.94%.

Take `Cn1cnnc1C1CCCN(C(=O)NCCCn2cccn2)C1` (stereo not given): the cytotoxicity at 70.5 h was -2.61%. For `CCc1nnc2n1CCN(CCC(=O)Nc1sccc1C#N)C2` the value was -3.22%; for `CC(C)c1nnc2n1CCN(CCC(=O)Nc1sccc1C#N)C2`, -1.15%; for `OCCN1CCN(Cc2coc(-c3ccccc3)n2)CC1`, -4.94%. With `CN(Cc1ccco1)C(=O)CN1CCOC(Cn2cncn2)C1` (stereo not given), the cytotoxicity at 70.5 h was -3.13%. `Cc1cnc(C(=O)N2CCCCC2c2nc(C)cs2)cn1` (stereo not given): the cytotoxicity at 70.5 h is -0.288%. For the compound `Cc1csc(CNC(=O)N2CCCC(c3nncn3C)C2)n1` (stereo not given), the cytotoxicity at 70.5 h is -4.57%.

In the case of `COc1cc(C(C)=O)ccc1OCCNCc1ccco1`, the cytotoxicity at 70.5 h was -3.22%. Then `CNC(C(=O)OC)c1cc(F)ccc1F` (stereo not given), with -3.37%.

The values are drawn from ChEMBL document CHEMBL3507680, “University of Dundee, Gates Library screen for HepG2 cell viability”.
